From patent US12358931B2, “3-((1R,3s,5S)-3-((7-((5-methyl-1H-pyrazol-3-yl)amino)-1,6-naphthyridin-5-yl)amino)-8-azabicyclo[3.2.1]octan-8-yl) propanenitrile as a JAK kinase inhibitor” (priority 2015, dated 2025) come the findings set out here.

A short description of series [1]: Pharmacokinetics in plasma and the GI tract in rats. Particulars: oral dosing in preclinical species. In kind it is in vivo, Sprague Dawley rats. How it is done:
A test compound was dosed to male Sprague Dawley rats (n=3) as described in Assay 5. […] At all time points, the plasma concentration was below the limit of quantitation of 0.001 μg/mL.

For series [2], the system named is oxazolone-induced colitis. The series is described as follows: Mouse model of oxazolone-induced colitis. Particulars: PO, 1, 3, and/or 10 mg/kg BID. The class given is in vivo, BALB/C mice. The protocol:
Oxazolone-induced colitis is an experimental model that has a histological resemblance to human ulcerative colitis (Heller et al. […], 2002, 17, 629-638). Adult BALB/C mice from Harlan were used in the assay. On day 1, animals were lightly anesthetized with isoflurane and the hairs between the shoulder were carefully removed before oxazolone (4%, 150 μL, 4:1 acetone: olive oil formulation) or vehicle solution was slowly applied for skin sensitization. Seven days after skin sensitization, the mice were fasted overnight, anesthetized with isoflurane inhalation, and a 1 mL syringe equipped with a 3.5-F catheter, filled with oxazolone solution, was inserted carefully about 4 cm into the colon of the mouse. Following insertion, 50 μL of the oxazolone solution (1%, 1:1 ethanol:water formulation) was injected very slowly (over 30 sec using an injection pump) into the colon. […] Two-day post oxazolone intrarectal challenge, the Disease Activity Index (DAI) was assessed by treatment-blinded experimenters for each mouse according to the criteria score: stool consistency score (0, normal; 2, loose; 4, diarrhea), gross bleeding score (0, absence; 2, blood tinged; 4, presence), and weight loss score (0, none; 1, 1%-5%; 2, 5%-10%; 3, 10%-20%; 4, more than 20%); DAI=average of (stool consistency score+gross bleeding score+weight loss score). […]

Series [3] relates to mouse splenic NK, B and T cells. The experiment in a line: Immunosuppression effects in mouse splenic natural killer (NK) cells. The class given is in vivo, Balb/C mice. Particulars: for B and T cell populations: mouse spleen; for B and T cell populations / splenic NK cell counts: PO BID three days; for splenic NK cell counts: Example 1 up to 100 mg/kg, tofacitinib 30 mg/kg. How it is done: Depletion of mouse splenic cells is an experimental model of immunosuppression (Kudlacz et al., Am. J. of Transplantation, 2004, 4, 51-57). […] Adult male Balb/C mice (12-14 weeks of age) from Harlan were used for the study. […] Spleens were harvested 1 or 2 h post last dose and crushed immediately for cell subtype staining. Prior to fixation, fluorophore-labelled antibodies for CD19 (FITC; B cells), CD3e (PE; pan T cells) and DX5 (APC; NK cells) were incubated with splenocyte samples from each animal to allow for simultaneous, multiple subtype % analysis on the flow cytometer. The number of total spleen cells for each animal was measured by Scepter™ 2.0 Handheld Automated Cell Counter. The absolute number of lymphocyte subtype population (e.g., splenic B, T and NK cells) was calculated from the percentage of each subtype times total spleen cells for each animal. A one way ANOVA, with Dunnett's post hoc test, was used to compare the splenic lymphocytes number of the vehicle and test compound groups. The a level was set at p<0.05. Data were presented as the mean±SEM for each group.

The nature of series [4]: First in human study of safety, tolerability and pharmacokinetics in healthy subjects. In kind it is in vivo. Particulars: suggested by comparison with other orally administered compounds. How it is done: The compound of Example 1 was evaluated in a double-blinded, randomized, placebo-controlled, single ascending dose (SAD) and multiple ascending dose (MAD) study of safety, tolerability, and pharmacokinetics in healthy subjects. Pharmacokinetic samples were collected up to 72 hours post the final dose in both the SAD study (after the first dose) and MAD study (after 14 days of once-daily dosing). The SAD study enrolled 5 cohorts and the MAD study enrolled 4 cohorts totaling 72 subjects, of which 71 completed the dosing period.
Plasma pharmacokinetic (PK) parameters were determined by non-compartmental analysis using WinNonLin Version 6.4.0 (Pharsight, St Louis, MO). The plasma PK parameter presented here is: • Cmax: maximum concentration in plasma

How the values of series [5] were obtained:
A weighed sample was used and the humidity was lowest possible value (close to 0% RH) at the start of the analysis. The DMS analysis consisted of an initial drying step (0% RH) for 120 minutes, followed by two cycles of sorption and desorption with a scan rate of 5% RH/step over the humidity range of 5% RH to 90% RH. The DMS run was performed isothermally at 25° C.

Series [6] is described as follows: Solid state stability assessment. The class given is physicochemical. Set-up: unit not given here. From the text:
At specific intervals, the contents of a representative sample was removed and analyzed by HPLC for chemical purity and by Karl Fischer for water content.

Consider `Cc1cc(Nc2cc3ncccc3c(N[C@@H]3C[C@H]4CC[C@@H](C3)N4CCC#N)n2)n[nH]1` [Example 1, 3-((1R,3s,5S)-3-((7-((5-methyl-1H-pyrazol-3-yl)amino)-1,6-naphthyridin-5-yl)amino)-8-azabicyclo[3.2.1]octan-8-yl)propanenitrile], for which the “exposure throughout the gastrointestinal tract versus plasma” value in series [1] is given as “significantly higher exposure”. The “decrease in DAI score as compared with vehicle treated animals” value in series [2] is listed as “demonstrated activity”. The “B and T cell populations” value in series [3] is on record as “No treatment effect”. For the same molecule, the “splenic NK cell counts” value in series [3] (mouse) was “unaffected”. For the same molecule, the effect of immunosuppression result in series [3] (mouse, same dose required for efficacy in the oxazolone model) is listed as “minimal effect”. For the same molecule, the oral bioavailability result in series [4] is “very low”.
Take `Cc1cc(Nc2cc3ncccc3c(N[C@@H]3C[C@H]4CC[C@@H](C3)N4CCC#N)n2)n[nH]1` [Form I, 3-((1R,3s,5S)-3-((7-((5-methyl-1H-pyrazol-3-yl)amino)-1,6-naphthyridin-5-yl)amino)-8-azabicyclo[3.2.1]octan-8-yl)propanenitrile]: the “weight change (gain) on moisture sorption” value in series [5] (5% to 90% relative humidity, room temperature, listed as Crystalline 3-(1R,3s,5S)-3-((7-((5-methyl-1H-pyrazol-3-yl)amino)-1,6-naphthyrid))) is listed as “less than 0.15%”. Moreover, the hygroscopicity entry in series [5] (two cycles of sorption and desorption) is “non-hygroscopic”. Besides, the “RRT 0.96” value in series [6] (HPLC peak at RRT 0.96, T = 0) is recorded as 0.07; in series [6] (HPLC peak at RRT 0.96, T = 1 Month, 40° C./75% RH), 0.07; in series [6] (HPLC peak at RRT 0.96, T = 3 Month, 25° C./60% RH) it was 0.07; in series [6] (HPLC peak at RRT 0.96, T = 3 Month, 40° C./75% RH), 0.07. The “RRT 1.84” value in series [6] (HPLC peak at RRT 1.84, T = 0) came out at 0.08; in series [6] (HPLC peak at RRT 1.84, T = 1 Month, 40° C./75% RH), 0.08; in series [6] (HPLC peak at RRT 1.84, T = 3 Month, 25° C./60% RH), 0.05; in series [6] (HPLC peak at RRT 1.84, T = 3 Month, 40° C./75% RH), 0.05.
For the molecule `C[C@@H]1CCN(C(=O)CC#N)C[C@@H]1N(C)c1ncnc2[nH]ccc12` [tofacitinib, reference compound], in series [3], the “B and T cell populations” value is recorded as “No treatment effect”. The “splenic NK cell counts” value in series [3] (mouse) was “dose-dependently and significantly decreased”.
